{"source": "patent US9296747B1", "about": "“Piperidylpyrimidine derivatives as modulators of protein kinase inhibitors and of vascular endothelial growth factor receptor 2” (Allergan, Inc., priority 2014, dated 2016)", "key": {"[1]": {"target": "VEGFR2 (purified cytoplasmic domain KDR protein) (Homo sapiens (Human), UniProt P35968)", "sequence (P35968 786-1356)": "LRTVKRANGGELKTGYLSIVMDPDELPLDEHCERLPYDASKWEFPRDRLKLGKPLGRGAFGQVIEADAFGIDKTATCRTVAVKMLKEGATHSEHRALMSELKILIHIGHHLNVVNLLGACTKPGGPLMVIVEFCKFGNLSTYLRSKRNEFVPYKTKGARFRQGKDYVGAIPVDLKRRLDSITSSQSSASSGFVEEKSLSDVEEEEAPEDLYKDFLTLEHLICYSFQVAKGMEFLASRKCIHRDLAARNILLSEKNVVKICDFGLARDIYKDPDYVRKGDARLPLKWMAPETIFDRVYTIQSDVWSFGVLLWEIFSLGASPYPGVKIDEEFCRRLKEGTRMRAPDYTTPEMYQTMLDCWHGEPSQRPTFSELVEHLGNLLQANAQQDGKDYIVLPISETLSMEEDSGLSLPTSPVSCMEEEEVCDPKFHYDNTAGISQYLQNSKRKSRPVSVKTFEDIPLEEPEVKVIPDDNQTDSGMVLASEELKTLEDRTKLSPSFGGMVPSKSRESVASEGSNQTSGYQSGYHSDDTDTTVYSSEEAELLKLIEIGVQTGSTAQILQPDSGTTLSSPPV", "test": "VEGFR2 Kinase Assay (biochemical KDR kinase, poly-Glu-Tyr ELISA)", "settings": "2.7 μM ATP, 15 minute incubation at 30° C.", "experimental": "VEGFR2 Kinase Assay […] Test compounds were reconstituted in 100% DMSO and added to the reaction to give a final DMSO concentration of 5%. […] Following a 15 minute incubation at 30° C., the reactions were washed 2 mls per well PBS-T. 100 μl of a monoclonal anti-phosphotyrosine antibody-peroxidase conjugate diluted 1:10,000 in PBS-T was added to the wells for 30 minutes. Following a 2 mls per well wash with PBS-Tween-20, 100 μl of 0-Phenylenediamine Dihydrochloride in phosphate-citrate buffer, containing urea hydrogen peroxide, was added to the wells for 7-10 minutes as a colorimetric substrate for the peroxidase. The reaction was terminated by the addition of 100 μl of 2.5N H2SO4 to each well and read using a microplate ELISA reader set at 492 nm. IC50 values for compound inhibition were calculated directly from graphs of optical density (arbitrary units) versus compound concentration following subtraction of blank values."}, "[2]": {"target": "recombinant human GST-PKR (Homo sapiens (Human), UniProt P19525)", "sequence (P19525 whole entry)": "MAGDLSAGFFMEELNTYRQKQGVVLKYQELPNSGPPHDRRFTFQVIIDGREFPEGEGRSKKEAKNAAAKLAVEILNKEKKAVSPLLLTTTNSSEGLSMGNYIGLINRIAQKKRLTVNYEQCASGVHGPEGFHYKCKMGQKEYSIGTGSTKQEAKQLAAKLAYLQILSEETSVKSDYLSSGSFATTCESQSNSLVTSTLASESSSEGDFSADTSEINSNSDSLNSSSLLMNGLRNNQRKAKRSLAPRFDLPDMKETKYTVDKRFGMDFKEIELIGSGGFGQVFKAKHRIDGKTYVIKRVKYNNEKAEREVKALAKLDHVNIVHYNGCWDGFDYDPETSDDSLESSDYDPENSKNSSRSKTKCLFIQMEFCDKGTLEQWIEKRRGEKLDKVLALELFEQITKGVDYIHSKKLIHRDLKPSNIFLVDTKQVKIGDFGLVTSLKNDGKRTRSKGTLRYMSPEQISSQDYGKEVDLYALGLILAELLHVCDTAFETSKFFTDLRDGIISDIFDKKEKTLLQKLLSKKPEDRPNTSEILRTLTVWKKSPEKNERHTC", "test": "PKR KinaseGlo Assay", "type": "biochemical", "settings": "6.6 uM ATP, 10 minutes at room temperature", "experimental": "Commercially available recombinant human GST-PKR (SignalChem, Canada; 1.5 uM-2 uM stock) is diluted to 500 nM in assay buffer (20 mM Tris-HCl, pH 7.2, 10 mM KCl, 10 mM MgCl2, 10% glycerol). Preactivated PKR is dispensed to 384/96-well black plates at 3.125/12.5 uls/well using the liquid handler Janus. Appropriate dilutions of inhibitors are added to 384/96-well plate followed by 6.6 uM ATP (final) and incubated for 10 minutes at room temperature. The remaining ATP/well is determined by adding 6.25/25 uls/well Kinase-Glo assay mix (Promega) and luminescence is measured on EnVision luminescence plate reader (integration time, 0.2 sec; Perkin-Elmer, Massachusetts, USA). The % inhibition for the compounds is calculated using ATP only (100% inhibition) and PKR+ATP (0% inhibition). […] values are determined by plotting % activity versus inhibitor concentration. Curves are fitted using Activity base XLfit (IDBS, UK) using the formula— • 4 Parameter Logistic Model fit=(A+((B−A)/(1+(10^((C−x)*D))))) inv=(C−(log(((B−A)/(y−A))−1)/D)) res=(y−fit)"}, "[3]": {"target": "PDGFRβ (purified cytoplasmic domain PDGFR-b protein) (Homo sapiens (Human), UniProt P09619)", "sequence (P09619 554-1106)": "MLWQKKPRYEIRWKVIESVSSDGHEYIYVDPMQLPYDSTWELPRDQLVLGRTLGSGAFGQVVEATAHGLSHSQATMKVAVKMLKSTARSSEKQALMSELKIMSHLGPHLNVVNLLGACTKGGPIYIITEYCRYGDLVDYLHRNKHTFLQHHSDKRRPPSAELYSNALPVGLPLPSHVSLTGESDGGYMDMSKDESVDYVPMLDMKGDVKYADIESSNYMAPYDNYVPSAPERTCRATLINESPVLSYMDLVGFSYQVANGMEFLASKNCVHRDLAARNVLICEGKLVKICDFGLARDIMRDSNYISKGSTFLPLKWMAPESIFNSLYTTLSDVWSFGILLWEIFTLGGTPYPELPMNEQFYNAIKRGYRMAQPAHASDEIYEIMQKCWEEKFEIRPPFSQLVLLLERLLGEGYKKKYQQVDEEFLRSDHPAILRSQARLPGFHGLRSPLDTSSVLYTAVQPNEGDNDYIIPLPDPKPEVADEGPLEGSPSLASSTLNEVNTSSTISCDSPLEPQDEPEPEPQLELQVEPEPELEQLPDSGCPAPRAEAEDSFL", "test": "PDGFRβ Kinase Assay (biochemical, poly-Glu-Tyr ELISA)", "settings": "36 μM ATP, 60 minute incubation at 30° C.", "experimental": "Biochemical PDGFRβ kinase assays were performed in 96 well microtiter plates that were coated overnight with 75 μg of poly-Glu-Tyr (4:1) in 10 mM Phosphate Buffered Saline (PBS), pH 7.4. The coated plates were washed with 2 mls per well PBS+0.05% Tween-20 (PBS-T), blocked by incubation with PBS containing 1% BSA, then washed with 2 mls per well PBS-T prior to starting the reaction. Reactions were carried out in 100 μL reaction volumes containing 36 μM ATP in kinase buffer (50 mM Hepes buffer pH 7.4, 20 mM MgCl2, 0.1 mM MnCl2 and 0.2 mM Na3VO4). Test compounds were reconstituted in 100% DMSO and added to the reaction to give a final DMSO concentration of 5%. Reactions were initiated by the addition 20 ul per well of kinase buffer containing 200-300 ng purified cytoplasmic domain PDGFR-b protein (Millipore). Following a 60 minute incubation at 30° C., the reactions were washed 2 mls per well PBS-T. 100 μl of a monoclonal anti-phosphotyrosine antibody-peroxidase conjugate diluted 1:10,000 in PBS-T was added to the wells for 30 minutes. Following a 2 mls per well wash with PBS-Tween-20, 100 μl of 0-Phenylenediamine Dihydrochloride in phosphate-citrate buffer, containing urea hydrogen peroxide, was added to the wells for 7-10 minutes as a colorimetric substrate for the peroxidase. The reaction was terminated by the addition of 100 μl of 2.5N H2SO4 to each well and read using a microplate ELISA reader set at 492 nm. IC50 values for compound inhibition were calculated directly from graphs of optical density (arbitrary units) versus compound concentration following subtraction of blank values."}}, "data": [{"compound": "COc1cc(Nc2ncc3c(n2)CCN(C(=O)c2ccccn2)C3)cc(OC)c1OC", "note": "[Example 15, 6-(pyridin-2-ylcarbonyl)-N-(3,4,5-trimethoxyphenyl)-5,6,7,8-tetrahydropyrido[4,3-d]pyrimidin-2-amine]", "values": [{"measurement": "IC50", "setting": "[1]", "value": 1850, "unit": "nM"}, {"measurement": "IC50", "setting": "[2]", "value": 2820, "unit": "nM"}]}, {"compound": "Cn1nccc1Nc1ncc2c(n1)CCN(C(=O)c1cccnc1)C2", "note": "[Example 8, N-(1-methyl-1H-pyrazol-5-yl)-6-(pyridin-3-ylcarbonyl)-5,6,7,8-tetrahydropyrido[4,3-d]pyrimidin-2-amine]", "values": [{"measurement": "IC50", "setting": "[1]", "value": 16, "unit": "nM"}, {"measurement": "IC50", "setting": "[3]", "value": 130, "unit": "nM"}]}, {"compound": "COc1cc(Nc2ncc3c(n2)CCN(C(=O)c2occc2C)C3)cc(OC)c1OC", "note": "[Example 11, 6-(3-methyl-2-furoyl)-N-(3,4,5-trimethoxyphenyl)-5,6,7,8-tetrahydropyrido[4,3-d]pyrimidin-2-amine]", "values": [{"measurement": "IC50", "setting": "[1]", "value": 6, "unit": "nM"}, {"measurement": "IC50", "setting": "[3]", "value": 239, "unit": "nM"}]}, {"compound": "COc1cc(Nc2ncc3c(n2)CCN(C(=O)c2cc(C)nn2C)C3)cc(OC)c1OC", "note": "[Example 12, 6-[(1,3-dimethyl-1H-pyrazol-5-yl)carbonyl]-N-(3,4,5-trimethoxyphenyl)-5,6,7,8-tetrahydropyrido[4,3-d]pyrimidin-2-amine]", "values": [{"measurement": "IC50", "setting": "[1]", "value": 5, "unit": "nM"}, {"measurement": "IC50", "setting": "[3]", "value": 19, "unit": "nM"}]}, {"compound": "N-phenyl-6-(pyridin-3-ylcarbonyl)-5,6,7,8-tetrahydropyrido[4,3-d]pyrimidin-2-amine [Example 2]", "values": [{"measurement": "IC50", "setting": "[1]", "value": "> 100000", "unit": "nM"}, {"measurement": "IC50", "setting": "[2]", "value": 89, "unit": "nM"}]}, {"compound": "COc1ccccc1Nc1ncc2c(n1)CCN(C(=O)c1cccnc1)C2", "note": "[Example 7, N-(2-methoxyphenyl)-6-(pyridin-3-ylcarbonyl)-5,6,7,8-tetrahydropyrido[4,3-d]pyrimidin-2-amine]", "values": [{"measurement": "IC50", "setting": "[1]", "value": 10, "unit": "nM"}, {"measurement": "IC50", "setting": "[3]", "value": 244, "unit": "nM"}]}, {"compound": "O=C(Nc1cccnc1)N1CCc2nc(Nc3ccccc3)ncc2C1", "note": "[Example 3, 2-anilino-N-pyridin-3-yl-7,8-dihydropyrido[4,3-d]pyrimidine-6(5H)-carboxamide]", "values": [{"measurement": "IC50", "setting": "[1]", "value": "> 10000", "unit": "nM"}, {"measurement": "IC50", "setting": "[2]", "value": 282, "unit": "nM"}]}, {"compound": "COc1cccc(Nc2ncc3c(n2)CCN(C(=O)c2cccnc2)C3)c1", "note": "[Example 6, N-(3-methoxyphenyl)-6-(pyridin-3-ylcarbonyl)-5,6,7,8-tetrahydropyrido[4,3-d]pyrimidin-2-amine]", "values": [{"measurement": "IC50", "setting": "[1]", "value": 443, "unit": "nM"}, {"measurement": "IC50", "setting": "[2]", "value": "> 40000", "unit": "nM"}]}, {"compound": "COc1ccc(Nc2ncc3c(n2)CCN(C(=O)c2cccnc2)C3)cc1", "note": "[Example 5, N-(4-methoxyphenyl)-6-(pyridin-3-ylcarbonyl)-5,6,7,8-tetrahydropyrido[4,3-d]pyrimidin-2-amine]", "values": [{"measurement": "IC50", "setting": "[1]", "value": 5, "unit": "nM"}, {"measurement": "IC50", "setting": "[3]", "value": 17, "unit": "nM"}, {"measurement": "IC50", "setting": "[2]", "value": "> 40000", "unit": "nM"}]}, {"compound": "COc1cc(Nc2ncc3c(n2)CCN(C(=O)c2cccs2)C3)cc(OC)c1OC", "note": "[Example 13, 6-(2-thienylcarbonyl)-N-(3,4,5-trimethoxyphenyl)-5,6,7,8-tetrahydropyrido[4,3-d]pyrimidin-2-amine]", "values": [{"measurement": "IC50", "setting": "[1]", "value": 8, "unit": "nM"}]}, {"compound": "COc1ccc(Nc2ncc3c(n2)CCN(C(=O)c2cccnc2)C3)cc1OC", "note": "[Example 16, N-(3,4-dimethoxyphenyl)-6-(pyridin-3-ylcarbonyl)-5,6,7,8-tetrahydropyrido[4,3-d]pyrimidin-2-amine]", "values": [{"measurement": "IC50", "setting": "[2]", "value": 176, "unit": "nM"}]}, {"compound": "COc1cc(Nc2ncc3c(n2)CCN(C(=O)c2cccnc2)C3)cc(OC)c1", "note": "[Example 17, N-(3,5-dimethoxyphenyl)-6-(pyridin-3-ylcarbonyl)-5,6,7,8-tetrahydropyrido[4,3-d]pyrimidin-2-amine]", "values": [{"measurement": "IC50", "setting": "[2]", "value": 130, "unit": "nM"}]}]}
